According to ChEMBL document CHEMBL1154997, “Inhibitors of dipeptidyl peptidase 8 and dipeptidyl peptidase 9. Part 1: identification of dipeptide derived leads” (Bioorg Med Chem Lett, 2008):

What was measured:
[1] = biological target: Dipeptidyl peptidase 2 (Homo sapiens, UniProt Q9UHL4)
[2] = biological target: Dipeptidyl peptidase 4 (Homo sapiens, UniProt P27487)
[3] = biological target: Dipeptidyl peptidase 8 (Homo sapiens, UniProt Q6V1X1)
[4] = biological target: Dipeptidyl peptidase 9 (Homo sapiens, UniProt Q86TI2)
Dipeptidyl peptidase 9, sequence (Q86TI2 whole entry): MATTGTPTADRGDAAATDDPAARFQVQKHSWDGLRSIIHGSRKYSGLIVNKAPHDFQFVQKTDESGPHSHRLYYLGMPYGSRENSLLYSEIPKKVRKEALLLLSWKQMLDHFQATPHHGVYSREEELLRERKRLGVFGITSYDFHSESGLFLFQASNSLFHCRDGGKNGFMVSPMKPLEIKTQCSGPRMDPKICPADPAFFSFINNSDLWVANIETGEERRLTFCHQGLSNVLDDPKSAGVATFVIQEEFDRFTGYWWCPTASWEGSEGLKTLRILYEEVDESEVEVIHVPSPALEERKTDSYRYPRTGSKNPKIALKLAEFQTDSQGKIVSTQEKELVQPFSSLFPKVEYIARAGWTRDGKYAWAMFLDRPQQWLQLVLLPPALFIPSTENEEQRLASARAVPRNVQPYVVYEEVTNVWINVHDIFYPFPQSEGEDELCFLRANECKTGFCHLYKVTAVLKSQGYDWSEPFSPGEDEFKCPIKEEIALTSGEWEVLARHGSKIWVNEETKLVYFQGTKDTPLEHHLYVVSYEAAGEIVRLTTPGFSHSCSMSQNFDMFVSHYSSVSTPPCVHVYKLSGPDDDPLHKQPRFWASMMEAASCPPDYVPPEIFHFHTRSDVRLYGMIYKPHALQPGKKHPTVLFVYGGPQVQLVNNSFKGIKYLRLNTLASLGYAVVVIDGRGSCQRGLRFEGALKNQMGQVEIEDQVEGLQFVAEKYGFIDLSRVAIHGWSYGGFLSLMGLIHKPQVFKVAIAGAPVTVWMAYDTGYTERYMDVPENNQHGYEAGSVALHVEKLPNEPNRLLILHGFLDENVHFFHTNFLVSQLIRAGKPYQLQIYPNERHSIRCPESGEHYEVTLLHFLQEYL

Dipeptidyl peptidase 8, sequence (Q6V1X1 whole entry): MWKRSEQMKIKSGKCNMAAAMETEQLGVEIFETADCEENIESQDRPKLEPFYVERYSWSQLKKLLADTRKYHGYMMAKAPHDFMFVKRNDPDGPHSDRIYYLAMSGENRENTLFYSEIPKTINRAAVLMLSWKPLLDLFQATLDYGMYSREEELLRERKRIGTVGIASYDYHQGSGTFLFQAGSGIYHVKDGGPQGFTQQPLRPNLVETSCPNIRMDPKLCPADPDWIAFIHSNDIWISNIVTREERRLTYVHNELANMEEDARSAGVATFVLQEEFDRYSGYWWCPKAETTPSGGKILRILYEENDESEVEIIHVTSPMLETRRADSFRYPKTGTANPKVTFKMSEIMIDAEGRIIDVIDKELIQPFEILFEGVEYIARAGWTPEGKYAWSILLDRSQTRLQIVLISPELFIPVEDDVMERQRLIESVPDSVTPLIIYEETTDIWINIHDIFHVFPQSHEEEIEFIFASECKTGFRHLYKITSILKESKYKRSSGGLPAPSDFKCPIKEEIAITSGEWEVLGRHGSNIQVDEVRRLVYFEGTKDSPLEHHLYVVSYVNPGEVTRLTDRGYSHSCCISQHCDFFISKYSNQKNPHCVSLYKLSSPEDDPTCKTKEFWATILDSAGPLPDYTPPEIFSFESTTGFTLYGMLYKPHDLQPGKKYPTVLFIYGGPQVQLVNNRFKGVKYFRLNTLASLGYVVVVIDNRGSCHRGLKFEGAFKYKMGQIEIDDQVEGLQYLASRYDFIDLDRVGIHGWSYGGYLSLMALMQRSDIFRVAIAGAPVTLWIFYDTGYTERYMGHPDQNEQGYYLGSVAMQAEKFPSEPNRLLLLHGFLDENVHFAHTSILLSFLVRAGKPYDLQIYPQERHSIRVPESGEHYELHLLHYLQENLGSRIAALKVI
Dipeptidyl peptidase 4, sequence (P27487 whole entry): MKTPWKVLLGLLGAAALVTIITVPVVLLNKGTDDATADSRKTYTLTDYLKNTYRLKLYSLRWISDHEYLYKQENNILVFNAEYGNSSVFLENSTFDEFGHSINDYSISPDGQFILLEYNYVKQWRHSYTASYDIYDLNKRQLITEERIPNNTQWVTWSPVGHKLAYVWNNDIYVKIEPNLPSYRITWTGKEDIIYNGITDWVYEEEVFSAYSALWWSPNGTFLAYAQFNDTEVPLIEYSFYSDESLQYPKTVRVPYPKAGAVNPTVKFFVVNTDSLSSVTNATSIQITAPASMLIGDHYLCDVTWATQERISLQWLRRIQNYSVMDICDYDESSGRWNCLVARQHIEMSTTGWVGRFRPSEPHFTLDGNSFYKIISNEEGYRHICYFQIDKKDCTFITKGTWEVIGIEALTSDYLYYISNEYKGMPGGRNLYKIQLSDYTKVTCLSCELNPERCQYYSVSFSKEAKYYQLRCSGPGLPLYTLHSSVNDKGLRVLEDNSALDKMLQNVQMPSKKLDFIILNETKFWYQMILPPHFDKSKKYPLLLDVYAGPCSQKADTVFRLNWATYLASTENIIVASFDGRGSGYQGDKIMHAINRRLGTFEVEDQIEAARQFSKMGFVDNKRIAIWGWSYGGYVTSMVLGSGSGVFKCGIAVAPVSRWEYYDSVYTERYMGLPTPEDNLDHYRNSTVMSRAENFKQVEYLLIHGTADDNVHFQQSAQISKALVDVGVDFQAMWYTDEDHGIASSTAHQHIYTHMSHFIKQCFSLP

Row | Compound | IC50 [1] [µM] | IC50 [2] [µM] | IC50 [3] [µM] | IC50 [4] [µM] | Ki [1] [nM]
1 | N[C@@H](Cc1ccccc1)C(=O)N1CCCC1 | 79 | 21 | 115 | – | –
2 | N[C@@H](Cc1ccc(O)cc1)C(=O)N1CCCC1 | 15.7 | 43.5 | – | – | –
3 | CC(C)[C@H](N)C(=O)N1CCCC1 | 153 | – | – | – | –
4 | CC[C@H](C)[C@H](N)C(=O)N1CCC(O)C1 (stereo partly specified) | 299 | 93 | 130 | > 100 | –
5 | C[C@H](N)C(=O)N1CCCC1 | – | – | 411 | – | –
6 | N[C@@H](CS)C(=O)N1CCCC1 | 19 | 37 | – | – | –
7 | CC(C)C[C@H](N)C(=O)N1CCCC1 | 122 | 24 | – | – | –
8 | N[C@@H](CO)C(=O)N1CCCC1 | 65 | 190 | > 500 | – | –
9 | N=C(NCCC[C@H](NC(=O)OCc1ccccc1)C(=O)N1CCCC1)NC(=O)OCc1ccccc1 | 0.86 | 16.8 | – | – | –
10 | N[C@@H](Cc1c[nH]c2ccccc12)C(=O)N1CCCC1 | 49 | 286 | 242 | > 100 | –
11 | CC[C@H](C)[C@H](N)C(=O)N1CC=CCC1 | 52 | 52 | – | > 50 | –
12 | CC[C@H](C)[C@H](N)C(=O)N1CCC1 | 730 | 50.4 | 127 | > 100 | –
13 | NC(=O)C[C@H](N)C(=O)N1CCCC1 | 152 | 188 | > 500 | – | –
14 | CC[C@H](C)[C@H](N)C(=O)N1CCCCCC1 | 228 | 374 | 612 | > 100 | –
15 | C[C@@H](O)[C@H](N)C(=O)N1CCCC1 | 230 | 98 | – | – | –
16 | N[C@@H](Cc1c[nH]cn1)C(=O)N1CCCC1 | 1.2 | 23.1 | > 500 | > 100 | –
17 | CC(C)[C@H](N)C(=O)N1CSC[C@H]1B(O)O | 0.086 | – | – | – | –
18 | CC[C@H](C)[C@H](N)C(=O)N1CCC(Cl)C1 (stereo partly specified) | 30 | 94 | – | – | –
19 | CC[C@H](C)[C@H](N)C(=O)N1CCC(F)C1 (stereo partly specified) | 111 | 3.5 | – | – | –
20 | NCC(=O)N1CCCC1 | – | – | > 1000 | > 1000 | –
21 | N[C@@H](CC(=O)O)C(=O)N1CCCC1 | – | – | > 1000 | – | –
22 | CC[C@H](C)[C@H](N)C(=O)N1CC=CC1 | 288 | 15 | – | – | –
23 | CC[C@H](C)[C@H](N)C(=O)NC1CCCC1 | > 100 | > 1000 | > 1000 | > 100 | –
24 | N[C@@H](CCNCc1ccc(Cl)cc1)C(=O)N1CCCCC1 | < 0.0005 | – | – | 76.6 | 0.082
25 | CC[C@H](C)[C@H](N)C(=O)N1CCCCC1 | 59 | 67 | – | – | –

Results, then the compound that gave them:

Row | IC50 [1] [µM] | IC50 [2] [µM] | IC50 [3] [µM] | IC50 [4] [µM] | Ki [1] [nM] | Compound
26 | 0.068 | – | – | – | – | N#C[C@@H]1C[C@H](N=[N+]=[N-])CN1C(=O)[C@@H](N)CCCCN(c1ccc2ccccc2c1)c1ccc2ccccc2c1
27 | 0.577 | – | – | – | – | N#C[C@@H]1CCCN1C(=O)[C@@H](N)CCCCN
28 | 1.5 | 51 | – | – | – | N#C[C@@H]1CCCCN1C(=O)[C@@H](N)CCCCN
29 | 43 | 107 | – | – | – | CC[C@H](C)[C@H](N)C(=O)N1CCC(N=[N+]=[N-])C1 (stereo partly specified)
30 | > 1000 | > 1000 | > 1000 | > 100 | – | N[C@@H](CCC(=O)O)C(=O)N1CCCC1
31 | 0.025 | 2.5 | – | – | – | N#C[C@@H]1C[C@H](N=[N+]=[N-])CN1C(=O)[C@@H](N)CCCCN(c1cccc2ccccc12)c1cccc2ccccc12
32 | 390 | > 1000 | > 500 | > 100 | – | N[C@@H](CCCCNC(=O)OCc1ccccc1)C(=O)N1CCCc2ccccc21
33 | 4.9 | – | – | – | – | [N-]=[N+]=NC1CCN(C(=O)[C@@H](N)CCCCN)C1 (stereo partly specified)
34 | 9.9 | 39 | – | – | – | NCCCC[C@H](N)C(=O)N1CCCC1
35 | 0.84 | 0.035 | – | – | – | N#C[C@@H]1CCCN1C(=O)[C@@H](N)CCCCNC(=O)OCc1ccccc1
36 | 5.7 | 15.6 | – | – | – | N[C@@H](CCCCNC(=O)OCc1ccccc1)C(=O)N1CCCC1
37 | 0.35 | 0.53 | – | – | – | N#C[C@@H]1C[C@H](N=[N+]=[N-])CN1C(=O)[C@@H](N)CCCCNC(=O)OCc1ccccc1
38 | 1.02 | 3.7 | – | – | – | N[C@@H](CCCCNC(=O)OCc1ccccc1)C(=O)N1CCSC1
39 | 9.8 | 118 | – | – | – | NCCC[C@H](N)C(=O)N1CCCC1
40 | 0.034 | 0.56 | – | – | – | N#C[C@@H]1C[C@H](N=[N+]=[N-])CN1C(=O)[C@@H](N)CCCCNc1ccc2ccccc2c1
41 | 0.31 | 2.2 | – | – | – | N#C[C@@H]1C[C@H](N=[N+]=[N-])CN1C(=O)[C@@H](N)CCCCN
42 | 48 | 500 | 139 | – | – | NCCCC[C@H](N)C(=O)N1CCC(O)C1 (stereo partly specified)
43 | 3.1 | 12.7 | – | – | – | N=C(N)NCCC[C@H](N)C(=O)N1CCCC1
44 | 393 | > 1000 | 312 | > 100 | – | NCCCC[C@H](N)C(=O)N1CCCc2ccccc21
45 | 3.7 | 9.7 | – | – | – | N[C@@H](CCCNC(=O)OCc1ccccc1)C(=O)N1CCCC1
46 | 60 | 15 | – | – | – | CCCC[C@H](N)C(=O)N1CCCC1
47 | 2.9 | 23 | – | – | – | NCCCC[C@H](N)C(=O)N1CCSC1
